Measurements taken from patent publication US12180184B2, “Pyrimidopyrazolone derivative as Wee1 inhibitor and use thereof” (Wuxi Biocity Biopharmaceutics Co., Ltd., priority 2018, dated 2024).

Columns and labels:
Wee1 = biological target: T1, Wee1 (Homo sapiens, UniProt P30291); assay: In vitro enzyme inhibitory activity, Wee1 kinase radiometric ([33P]-ATP) assay at Eurofins; format: biochemical; conditions: in vitro enzymatic activity; 40 min at room temperature, peptide substrate 500 μM
T1 construct: Eurofins
T1 sequence (P30291 whole entry): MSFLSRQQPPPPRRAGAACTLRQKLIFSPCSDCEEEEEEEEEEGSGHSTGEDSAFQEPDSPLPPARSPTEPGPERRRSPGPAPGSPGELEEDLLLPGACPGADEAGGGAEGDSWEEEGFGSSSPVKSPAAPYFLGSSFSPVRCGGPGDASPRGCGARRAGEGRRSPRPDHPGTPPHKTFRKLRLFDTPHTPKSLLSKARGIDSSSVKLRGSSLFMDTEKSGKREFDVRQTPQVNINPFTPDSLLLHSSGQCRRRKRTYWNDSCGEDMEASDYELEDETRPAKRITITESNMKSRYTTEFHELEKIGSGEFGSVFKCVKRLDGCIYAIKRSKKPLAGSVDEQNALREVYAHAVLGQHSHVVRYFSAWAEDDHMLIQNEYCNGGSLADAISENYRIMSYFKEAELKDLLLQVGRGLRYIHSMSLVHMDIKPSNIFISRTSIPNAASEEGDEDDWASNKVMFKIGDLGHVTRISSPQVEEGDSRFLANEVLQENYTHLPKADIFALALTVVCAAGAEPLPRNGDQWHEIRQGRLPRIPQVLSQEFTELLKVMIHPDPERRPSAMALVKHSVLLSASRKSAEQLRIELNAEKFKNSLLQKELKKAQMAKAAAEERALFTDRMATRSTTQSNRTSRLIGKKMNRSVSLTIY
Experimental: The compounds used for experiments were all prepared in-house, and their chemical names and structural formulas were shown in the preparation examples for each compound. The experimental tests were carried out in Eurofins, which provided the experimental results.
In the Wee1 reaction system, 20 mM Tris-HCl, pH 8.5, 0.2 mM EDTA, 500 μM polypeptide substrate ([…]) (Sequence ID No. 1), 10 mM magnesium acetate and a certain concentration of […] (intensity of about 500 cpm/pmol) were added. Addition of Mg^2+ and ATP mixed solution initiated the reaction. Incubation was performed at room temperature for 40 min and 3% phosphate buffer was added to terminate the reaction. 10 μL of the reaction solution was filtered on a continuous filter P30, and washed with 75 mM phosphate buffer three times, and washed with methanol once, 5 min for each time. After drying, the scintillation counting was used to read the values.

[1] = test system: Human pancreatic cancer PC-07-0049 subcutaneously transplanted tumor; assay: In vivo pharmacodynamics study on human pancreatic cancer PC-07-0049 subcutaneously transplanted tumor model in nude mice; set-up: species or system BALB/c nude mice; conditions: for TGI (%): PC-07-0049 tumor in BALB/c nude mice
Text: Procedures: The selected experimental animals were BALB/c nude mice (6 animals per group), 6-8 weeks old, weigh 16-21 grams.
The establishment of the Human pancreatic carcinoma PC-07-0049 model was originally derived from surgically excised clinical samples, which was defined as the P0 generation after implantation in nude mice. The implantation of the tumor tissue of P0 generation into the next generation was defined as the P1 generation. The implantation was continued in nude mice in this way. The tumor of FP3 was revived through the P2 generation. The next generation generated by the FP3 generation was defined as FP4, and so on. The tumor tissue of the FP5 generation will be used for the drug efficacy test.
The PC-07-0049 FP5 tumor tissue was cut into small pieces (20-30 mm^3) after removing the necrotic tissue and was inoculated subcutaneously on the right back of each nude mouse. When the average tumor volume reached about 193 mm^3, according to the tumor volume, the animals were divided into random groups and administered.
The experimental index was to investigate whether tumor growth was inhibited, delayed or cured. The diameters of the tumors were measured with a vernier caliper twice a week. The tumor suppression efficacy of the compound was evaluated by TGI (%) or the relative tumor proliferation rate T/C (%). TGI (%) reflects the tumor growth inhibition rate. Calculation of TGI (%): TGI (%)=[(1−(Average tumor volume at the end of a treatment group−average tumor volume at the beginning of the treatment group))/(Average tumor volume at the end of treatment in the solvent control group−the average tumor volume at the beginning of treatment in the solvent control group)]×100%.

Row | Compound | IC50 (Wee1) [nM] | further results
1 | C/C1=C/CC[C@@](C)(O)c2cccc(n2)-n2c3nc(Nc4ccc(N5CCN(C)CC5)cc4)ncc3c(=O)n2C1 [Compound 1] | 130 | –
2 | CN1CCN(c2ccc(Nc3ncc4c(=O)n5n(c4n3)-c3cccc(n3)[C@@](C)(O)CC/C=C(/F)C5)cc2)CC1 [Compound 4] | 110 | –
3 | CN1CCN(c2ccc(Nc3ncc4c(=O)n5n(c4n3)-c3cccc(n3)[C@](C)(O)CC/C=C(/F)C5)cc2)CC1 [Compound 3] | 28 | inhibitory effect on mouse tumor (in words) ([1]; combination of compound 3 and gemcitabine compared with gemcitabine alone, conclusion drawn from Table 2): significantly improve the inhibitory effect on mouse tumor; TGI (%) ([1]; compound 3 50 mg/kg once per day in combination with gemcitabine 20 mg/kg twice per week): 102%
4 | Nc1ccn([C@@H]2O[C@H](CO)[C@@H](O)C2(F)F)c(=O)n1 [Gemcitabine, reference compound] | – | TGI (%) ([1]; gemcitabine alone, 20 mg/kg twice per week): 58%
5 | CN1CCC(n2ccc3cc(Nc4ncc5c(=O)n6n(c5n4)-c4cccc(n4)[C@](C)(O)CC/C=C(/F)C6)ccc32)CC1 [Compound 2] | 37 | –
6 | CN1CCN(c2ccc(Nc3ncc4c(=O)n5n(c4n3)-c3cccc(n3)[C@](C)(O)CC/C=C(\F)C5)cc2)CC1 [Compound 5] | 43 | –
